{
  "source": "ChEMBL document CHEMBL1201862",
  "about": "“PubChem BioAssay data set” (2004)",
  "key": {"[1]": {"assay": "cytotoxicity in HEK-293T cells, dose response, cytotoxicity control for TCR NF-kB inhibitor project, luminescence, T-cell screen hits (AID 489026);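 further: cells exposed to compound about 14 hours before the viability readout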", "type": "functional, cell-based"}, "Nonstructural protein 1": {"biological_target": "Nonstructural protein 1 (Influenza A virus, UniProt Q194T2)", "sequence (Q194T2 whole entry)": "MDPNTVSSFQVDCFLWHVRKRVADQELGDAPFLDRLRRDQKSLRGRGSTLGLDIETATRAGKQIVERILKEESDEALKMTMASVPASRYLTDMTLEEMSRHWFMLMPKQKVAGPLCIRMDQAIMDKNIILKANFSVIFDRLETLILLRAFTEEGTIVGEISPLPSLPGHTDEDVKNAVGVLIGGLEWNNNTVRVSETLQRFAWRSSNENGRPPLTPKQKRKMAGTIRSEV", "type": "functional, Influenza A virus (A/California/07/2009(H1N1))"}, "Protein skinhead-1": {"biological_target": "T1, Protein skinhead-1 (Caenorhabditis elegans, UniProt P34707)", "T1 sequence (P34707 whole entry)": "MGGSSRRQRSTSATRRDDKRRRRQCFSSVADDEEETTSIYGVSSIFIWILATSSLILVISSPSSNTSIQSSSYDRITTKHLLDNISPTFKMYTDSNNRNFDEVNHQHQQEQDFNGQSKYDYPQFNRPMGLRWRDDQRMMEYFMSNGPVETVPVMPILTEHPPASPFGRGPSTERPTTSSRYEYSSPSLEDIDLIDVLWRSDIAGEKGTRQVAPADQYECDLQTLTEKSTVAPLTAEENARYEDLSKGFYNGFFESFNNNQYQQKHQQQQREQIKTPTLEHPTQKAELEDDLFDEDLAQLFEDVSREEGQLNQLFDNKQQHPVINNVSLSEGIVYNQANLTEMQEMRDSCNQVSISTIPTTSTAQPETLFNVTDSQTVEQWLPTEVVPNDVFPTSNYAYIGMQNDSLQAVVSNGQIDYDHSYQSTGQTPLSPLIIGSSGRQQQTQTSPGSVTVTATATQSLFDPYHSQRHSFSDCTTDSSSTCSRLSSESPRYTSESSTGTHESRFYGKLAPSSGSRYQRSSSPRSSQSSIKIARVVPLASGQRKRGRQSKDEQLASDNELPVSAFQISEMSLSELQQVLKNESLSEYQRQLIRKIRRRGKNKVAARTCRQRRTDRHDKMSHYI", "type": "functional"}, "[2]": {"assay": "NIH-3T3 fibroblast cytotoxicity, dose response, cytotoxicity control, cell-based, fluorescence, Alamar Blue, secondary assay (AID 2327);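 further: NIH-3T3 mouse fibroblasts cultured with fluconazole at 8 µg/mL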", "type": "functional"}, "BJ [3]": {"test_system": "BJ", "assay": "cytotoxicity toward BJ-TERT fibroblasts, dose response, cell-based, RAS-independent, luminescence (AID 1933)", "type": "functional", "details": "Homo sapiens"}, "BJ [4]": {"test_system": "BJ", "assay": "cells", "type": "functional, cell-based", "details": "Homo sapiens"}, "[5]": {"assay": "C. albicans growth with fluconazole, confirmation, fluorescence, retest (AID 2467)", "type": "functional, cell-based"}, "BJ [6]": {"test_system": "BJ", "assay": "cytotoxicity toward BJ-TERT-LT-ST fibroblasts, dose response, cell-based, RAS-independent, luminescence (AID 1935);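 further: BJ fibroblasts immortalized with TERT plus LT and ST oncogenes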", "type": "functional", "details": "Homo sapiens"}, "[7]": {"assay": "cytotoxicity toward DRD oncogenic fibroblasts, dose response, cell-based, non-viral oncogenic, luminescence (AID 1934)", "type": "functional", "details": "Homo sapiens"}, "Fatty acid synthase [8]": {"biological_target": "T2, Fatty acid synthase (Homo sapiens, UniProt P49327)", "T2 sequence (P49327 whole entry, the tested form may be a part)": "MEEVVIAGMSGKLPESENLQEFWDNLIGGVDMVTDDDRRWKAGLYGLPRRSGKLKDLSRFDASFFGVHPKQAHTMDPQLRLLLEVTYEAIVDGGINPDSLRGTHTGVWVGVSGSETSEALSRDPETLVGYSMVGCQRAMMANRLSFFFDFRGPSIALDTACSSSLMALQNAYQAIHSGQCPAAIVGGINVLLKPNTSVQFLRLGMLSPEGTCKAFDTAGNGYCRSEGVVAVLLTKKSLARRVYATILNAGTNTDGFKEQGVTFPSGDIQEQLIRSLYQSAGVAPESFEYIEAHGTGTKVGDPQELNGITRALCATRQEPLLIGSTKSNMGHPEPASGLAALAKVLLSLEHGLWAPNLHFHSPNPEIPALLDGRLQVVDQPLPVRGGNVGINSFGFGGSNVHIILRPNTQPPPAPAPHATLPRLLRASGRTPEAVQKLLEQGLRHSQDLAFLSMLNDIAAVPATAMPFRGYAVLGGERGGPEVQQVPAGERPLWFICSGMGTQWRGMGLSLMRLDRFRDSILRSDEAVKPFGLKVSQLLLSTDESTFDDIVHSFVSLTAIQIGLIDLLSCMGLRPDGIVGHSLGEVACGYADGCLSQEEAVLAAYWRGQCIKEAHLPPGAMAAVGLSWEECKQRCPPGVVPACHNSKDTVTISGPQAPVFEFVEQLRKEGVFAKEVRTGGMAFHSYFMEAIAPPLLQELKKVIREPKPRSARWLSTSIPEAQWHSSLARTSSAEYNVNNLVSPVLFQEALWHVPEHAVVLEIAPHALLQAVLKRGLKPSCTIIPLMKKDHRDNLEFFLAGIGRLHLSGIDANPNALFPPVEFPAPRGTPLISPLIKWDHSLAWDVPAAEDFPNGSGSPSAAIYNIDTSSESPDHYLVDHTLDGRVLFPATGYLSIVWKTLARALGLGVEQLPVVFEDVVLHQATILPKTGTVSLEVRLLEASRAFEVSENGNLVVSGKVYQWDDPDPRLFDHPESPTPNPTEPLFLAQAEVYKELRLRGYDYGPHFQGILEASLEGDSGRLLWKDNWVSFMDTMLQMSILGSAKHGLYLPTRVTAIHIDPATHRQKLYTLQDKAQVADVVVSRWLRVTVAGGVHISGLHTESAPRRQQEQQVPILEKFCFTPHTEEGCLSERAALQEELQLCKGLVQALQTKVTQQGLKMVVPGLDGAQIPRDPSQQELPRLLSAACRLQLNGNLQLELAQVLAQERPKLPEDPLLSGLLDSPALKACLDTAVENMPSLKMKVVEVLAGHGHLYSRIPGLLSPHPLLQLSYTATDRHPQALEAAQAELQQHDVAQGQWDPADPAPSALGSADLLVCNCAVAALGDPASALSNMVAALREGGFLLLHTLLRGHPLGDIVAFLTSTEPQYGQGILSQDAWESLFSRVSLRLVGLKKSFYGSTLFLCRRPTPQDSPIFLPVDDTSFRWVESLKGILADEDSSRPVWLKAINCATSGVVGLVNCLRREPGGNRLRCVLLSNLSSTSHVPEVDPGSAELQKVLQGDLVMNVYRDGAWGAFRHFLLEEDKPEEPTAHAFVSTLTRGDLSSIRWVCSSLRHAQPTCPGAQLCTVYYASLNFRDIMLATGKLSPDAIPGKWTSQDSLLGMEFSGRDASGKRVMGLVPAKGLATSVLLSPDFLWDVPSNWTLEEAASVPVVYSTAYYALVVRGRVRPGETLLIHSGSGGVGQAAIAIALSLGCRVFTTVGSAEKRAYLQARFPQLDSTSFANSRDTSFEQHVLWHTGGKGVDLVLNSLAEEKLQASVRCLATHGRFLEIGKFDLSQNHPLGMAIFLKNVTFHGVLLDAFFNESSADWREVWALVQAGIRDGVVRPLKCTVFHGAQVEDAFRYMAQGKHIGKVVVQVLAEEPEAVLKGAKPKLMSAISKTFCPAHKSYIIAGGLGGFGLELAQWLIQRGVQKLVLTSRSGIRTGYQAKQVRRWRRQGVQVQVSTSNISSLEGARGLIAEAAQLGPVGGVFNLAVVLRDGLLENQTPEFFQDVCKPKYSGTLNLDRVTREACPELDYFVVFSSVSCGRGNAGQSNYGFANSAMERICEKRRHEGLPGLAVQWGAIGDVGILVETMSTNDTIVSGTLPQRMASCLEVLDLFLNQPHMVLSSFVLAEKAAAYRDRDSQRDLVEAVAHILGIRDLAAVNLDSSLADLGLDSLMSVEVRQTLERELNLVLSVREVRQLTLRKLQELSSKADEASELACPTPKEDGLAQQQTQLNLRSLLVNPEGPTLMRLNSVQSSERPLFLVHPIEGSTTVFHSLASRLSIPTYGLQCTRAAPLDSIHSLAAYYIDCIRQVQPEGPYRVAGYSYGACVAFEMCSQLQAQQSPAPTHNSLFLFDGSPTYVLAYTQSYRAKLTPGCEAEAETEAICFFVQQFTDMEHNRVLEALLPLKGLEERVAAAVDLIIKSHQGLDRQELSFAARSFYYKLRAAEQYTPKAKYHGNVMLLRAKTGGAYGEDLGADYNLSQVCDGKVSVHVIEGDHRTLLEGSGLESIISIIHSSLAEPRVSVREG", "assay": "FAS thioesterase domain inhibitors, dose response, biochemical, endpoint fluorescence intensity, uHTS hits (AID 624327);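 further: fluorescence from hydrolysis of an O-methyl fluorescein acyl ester substrate by the enzyme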", "type": "functional"}, "Fatty acid synthase [9]": {"biological_target": "T2, Fatty acid synthase", "assay": "FAS thioesterase domain inhibitors, dose response, biochemical, kinetic fluorescence intensity (AID 624326);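 further: rate of fluorescence rise from hydrolysis of a fluorogenic O-methyl fluorescein ester substrate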", "type": "functional"}, "[10]": {"biological_target": "Induced myeloid leukemia cell differentiation protein Mcl-1 (Homo sapiens, UniProt Q07820)", "sequence (Q07820 whole entry)": "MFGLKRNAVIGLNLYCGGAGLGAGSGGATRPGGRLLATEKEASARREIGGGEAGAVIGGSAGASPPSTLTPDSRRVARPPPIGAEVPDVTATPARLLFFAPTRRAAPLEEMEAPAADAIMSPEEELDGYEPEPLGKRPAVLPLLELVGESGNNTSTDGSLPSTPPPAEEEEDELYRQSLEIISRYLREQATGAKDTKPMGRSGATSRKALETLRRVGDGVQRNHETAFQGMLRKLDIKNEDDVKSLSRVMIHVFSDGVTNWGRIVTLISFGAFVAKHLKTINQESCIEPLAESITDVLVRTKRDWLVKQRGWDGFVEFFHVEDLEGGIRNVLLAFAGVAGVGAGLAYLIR", "type": "functional"}, "[11]": {"assay": "HEp-2 cell cytotoxicity, dose response, cytotoxicity control for RSV inhibitor project, HTS (AID 2410)", "type": "functional", "details": "human respiratory syncytial virus"}, "Cytochrome P450 2C9": {"biological_target": "Cytochrome P450 2C9 (Homo sapiens, UniProt P11712)", "sequence (P11712 whole entry)": "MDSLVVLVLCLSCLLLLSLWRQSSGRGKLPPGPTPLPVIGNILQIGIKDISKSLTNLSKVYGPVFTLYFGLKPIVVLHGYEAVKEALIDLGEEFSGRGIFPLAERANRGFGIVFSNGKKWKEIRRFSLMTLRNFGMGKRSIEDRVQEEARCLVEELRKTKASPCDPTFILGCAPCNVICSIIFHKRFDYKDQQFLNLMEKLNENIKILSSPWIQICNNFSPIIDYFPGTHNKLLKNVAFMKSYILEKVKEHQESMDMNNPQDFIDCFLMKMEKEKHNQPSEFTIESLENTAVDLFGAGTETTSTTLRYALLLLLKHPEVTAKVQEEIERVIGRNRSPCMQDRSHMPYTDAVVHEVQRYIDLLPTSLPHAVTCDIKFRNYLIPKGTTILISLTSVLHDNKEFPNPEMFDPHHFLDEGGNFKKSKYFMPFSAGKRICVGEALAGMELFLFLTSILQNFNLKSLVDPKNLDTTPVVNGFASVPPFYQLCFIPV"}, "[12]": {"test_system": "Streptococcus sp. 'group A'", "assay": "growth inhibition of control SK(-) GAS strain, dose response, counter-screen for streptokinase expression inhibitor project, luminescence, kanamycin, BacTiterGlo, confirmation (AID 1900)", "type": "functional, organism-based"}, "Streptococcus": {"test_system": "Streptococcus", "assay": "Group A Streptococcus viability loss, dose response, counter-screen for streptokinase expression inhibitor project, luminescence, BacTiterGlo (AID 1915);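 further: potency for reduction of bacterial viability or growth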", "type": "functional, organism-based"}, "Large T antigen": {"biological_target": "Large T antigen (Simian virus 40, UniProt P03070)", "sequence (P03070 whole entry)": "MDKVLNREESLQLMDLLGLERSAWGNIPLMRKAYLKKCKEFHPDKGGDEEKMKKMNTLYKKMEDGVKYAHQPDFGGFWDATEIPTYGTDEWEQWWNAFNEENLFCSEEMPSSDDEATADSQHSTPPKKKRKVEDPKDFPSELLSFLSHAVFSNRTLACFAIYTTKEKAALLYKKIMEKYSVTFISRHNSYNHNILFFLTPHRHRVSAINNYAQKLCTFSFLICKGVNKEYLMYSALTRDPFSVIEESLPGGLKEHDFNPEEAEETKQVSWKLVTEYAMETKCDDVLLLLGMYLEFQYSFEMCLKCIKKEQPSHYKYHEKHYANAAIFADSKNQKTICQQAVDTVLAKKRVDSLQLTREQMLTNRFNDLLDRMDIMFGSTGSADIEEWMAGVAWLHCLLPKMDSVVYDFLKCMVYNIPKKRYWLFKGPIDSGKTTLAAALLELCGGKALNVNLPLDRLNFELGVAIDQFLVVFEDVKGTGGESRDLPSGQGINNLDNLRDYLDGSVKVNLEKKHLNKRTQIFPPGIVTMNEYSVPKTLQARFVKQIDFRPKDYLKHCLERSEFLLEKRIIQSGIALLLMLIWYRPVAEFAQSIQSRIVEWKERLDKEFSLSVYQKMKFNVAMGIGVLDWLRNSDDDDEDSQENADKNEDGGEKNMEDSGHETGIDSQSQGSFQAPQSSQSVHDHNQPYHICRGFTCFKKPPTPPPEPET", "type": "functional, Betapolyomavirus macacae"}, "[13]": {"assay": "inhibitors of firefly luciferase expression or activity, dose response, H4 neuroglioma cells, luminescence (AID 1990)", "type": "functional, cell-based"}, "[14]": {"assay": "Luminescence Cell-Based Dose Response HTS to Identify Inhibitors of 5'UTR Stem-Loop Driven Prion Protein mRNA Translation in H4 Neuroglioblastoma Cells. [Related pubchem assays: 1827 (Project Summary), 1813 (Primary HTS)]", "type": "functional"}, "[15]": {"assay": "inhibitors of SNCA 5'UTR-driven reporter translation, confirmation, H4 neuroglioma cells, luminescence (AID 1988)", "type": "functional, cell-based"}, "[16]": {"assay": "inhibitors of clade B AD8 Env fusion, dose response, cell-based, cherry-pick (AID 652062);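 further: potency is for inhibitors of fusion seen as a drop in luminescence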", "type": "functional"}, "Cytochrome P450 3A4": {"biological_target": "Cytochrome P450 3A4 (Homo sapiens, UniProt P08684)", "sequence (P08684 whole entry)": "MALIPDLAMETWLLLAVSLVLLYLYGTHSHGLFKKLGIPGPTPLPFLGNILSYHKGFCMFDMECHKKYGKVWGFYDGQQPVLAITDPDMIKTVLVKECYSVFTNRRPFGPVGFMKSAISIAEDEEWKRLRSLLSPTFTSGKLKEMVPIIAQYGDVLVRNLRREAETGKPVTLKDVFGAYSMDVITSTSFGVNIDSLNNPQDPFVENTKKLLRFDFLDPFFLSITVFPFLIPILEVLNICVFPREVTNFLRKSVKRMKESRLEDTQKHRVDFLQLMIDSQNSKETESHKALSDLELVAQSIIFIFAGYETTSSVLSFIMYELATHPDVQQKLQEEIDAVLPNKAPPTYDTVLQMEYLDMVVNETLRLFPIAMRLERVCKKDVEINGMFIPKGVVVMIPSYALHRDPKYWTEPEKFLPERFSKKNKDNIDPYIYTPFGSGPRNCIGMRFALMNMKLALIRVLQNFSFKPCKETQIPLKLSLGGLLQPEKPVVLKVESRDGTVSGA"}},
  "note": "The source made the active and inactive calls.",
  "data": [
    {"smiles": "COc1ccc(S(=O)(=O)Nc2cccc(-c3ccc4nncn4n3)c2)cc1F", "values": [
      {"measurement": "IC50", "setting": "[1]", "value": "> 80 µM (inactive)"}
    ]},
    {"smiles": "O=C(NCCCn1ccnc1)C(=O)NCC(c1cccnc1)N1CCN(c2ccc(F)cc2)CC1", "note": "(configuration not stated)", "values": [
      {"measurement": "IC50", "setting": "Nonstructural protein 1", "value": "> 100 µM (active)"}
    ]},
    {"smiles": "CC(=O)NC(Cc1ccc(F)cc1)C(=O)N1CCN(C(=O)NCc2ccccc2)CC1", "note": "(configuration not stated)", "values": [
      {"measurement": "IC50", "setting": "Protein skinhead-1", "value": "> 100 µM (inactive)"}
    ]},
    {"smiles": "CCOc1ccc2c(c1)OC(c1ccc(C)cc1)(C(F)(F)F)NC2=O", "note": "(configuration not stated)", "values": [
      {"measurement": "EC50", "setting": "[2]", "value": "> 160 µM (inconclusive)"},
      {"measurement": "EC50", "setting": "BJ [3]", "value": "4.54 µM (inconclusive)"},
      {"measurement": "EC50", "setting": "BJ [4]", "value": "29.9 µM (inconclusive)"},
      {"measurement": "EC50", "setting": "[5]", "value": "> 38 µM (not active)"},
      {"measurement": "EC50", "setting": "BJ [6]", "value": "1.32 µM (inconclusive)"},
      {"measurement": "EC50", "setting": "[7]", "value": "11.7 µM (inconclusive)"},
      {"measurement": "IC50", "setting": "[1]", "value": "> 80 µM (inactive)"}
    ]},
    {"smiles": "CCCCCn1c(N)c(C(=O)NCCN2CCOCC2)c2nc3ccccc3nc21", "values": [
      {"measurement": "IC50", "setting": "Protein skinhead-1", "value": "> 100 µM (inactive)"}
    ]},
    {"smiles": "O=C(/C=C/c1cccc([N+](=O)[O-])c1)NCCSCc1ccc(Cl)cc1Cl", "values": [
      {"measurement": "IC50", "setting": "Fatty acid synthase [8]", "value": "10.4 µM (active)"},
      {"measurement": "IC50", "setting": "Fatty acid synthase [9]", "value": "9.88 µM (active)"}
    ]},
    {"smiles": "O=C(Nc1nc(-c2ccc(S(=O)(=O)N3CCCC3)cc2)cs1)c1ccco1", "values": [
      {"measurement": "IC50", "setting": "Fatty acid synthase [9]", "value": "4.05 µM (active)"}
    ]},
    {"smiles": "CSC1=N/C(=C\\c2ccccc2F)C(=O)S1", "values": [
      {"measurement": "IC50", "setting": "[10]", "value": "24.7 µM (not active)"}
    ]},
    {"smiles": "CCn1c2ccccc2c2cc(NC(=O)CSc3nnc(-c4ccc(OC)c(OC)c4)n3N)ccc21", "values": [
      {"measurement": "CC50", "setting": "[11]", "value": "> 50 µM (active)"},
      {"measurement": "IC50", "setting": "Protein skinhead-1", "value": "> 100 µM (inactive)"},
      {"measurement": "AC50", "setting": "Cytochrome P450 2C9", "value": "22.4 µM (inconclusive)"}
    ]},
    {"smiles": "c1ccc(-c2cc3c(N4CCOCC4)ncnc3s2)cc1", "values": [
      {"measurement": "IC50", "setting": "Protein skinhead-1", "value": "> 100 µM (inactive)"}
    ]},
    {"smiles": "Cc1c(N=N/C(C#N)=C(\\O)c2ccccc2)c(=O)n(-c2ccccc2)n1C", "values": [
      {"measurement": "EC50", "setting": "[12]", "value": "2.43 µM (active)"},
      {"measurement": "EC50", "setting": "Streptococcus", "value": "7.26 µM (active)"},
      {"measurement": "IC50", "setting": "Nonstructural protein 1", "value": "8.08 µM (active)"}
    ]},
    {"smiles": "O=C(/C=C/c1ccc(Cl)cc1Cl)Nc1ccc(CN2CCOCC2)cc1", "values": [
      {"measurement": "IC50", "setting": "Protein skinhead-1", "value": "27 µM (active)"}
    ]},
    {"smiles": "COc1cc(/C=C(\\C#N)c2ccccn2)cc(OC)c1O", "values": [
      {"measurement": "IC50", "setting": "Large T antigen", "value": "14.5 µM (active)"}
    ]},
    {"smiles": "O=C(CSc1n[nH]c(-c2ccccn2)n1)Nc1ccccc1", "values": [
      {"measurement": "EC50", "setting": "[13]", "value": "> 120 µM (not active)"},
      {"measurement": "EC50", "setting": "[14]", "value": "> 120 µM (not active)"},
      {"measurement": "EC50", "setting": "[15]", "value": "> 120 µM (not active)"},
      {"measurement": "IC50", "setting": "Nonstructural protein 1", "value": "5.02 µM (active)"}
    ]},
    {"smiles": "COc1ccc(N2CCN(C(=O)C3CCC(Cn4c(=S)[nH]c5ccccc5c4=O)CC3)CC2)cc1", "note": "(configuration not stated)", "values": [
      {"measurement": "IC50", "setting": "Nonstructural protein 1", "value": "> 100 µM (active)"},
      {"measurement": "AC50", "setting": "[16]", "value": "10 µM (active)"}
    ]},
    {"smiles": "O=C1CC(=O)c2c1cccc2[N+](=O)[O-]", "values": [
      {"measurement": "IC50", "setting": "[10]", "value": "3.52 µM (active)"}
    ]},
    {"smiles": "Cc1ccc(Cn2c(C)nc3ccc([N+](=O)[O-])cc3c2=O)cc1", "values": [
      {"measurement": "IC50", "setting": "Fatty acid synthase [8]", "value": "4.8 µM (active)"},
      {"measurement": "IC50", "setting": "Fatty acid synthase [9]", "value": "5.2 µM (active)"}
    ]},
    {"smiles": "O=C(Nc1ccc(Cl)cc1Cl)C1=Cc2ccccc2OC1", "values": [
      {"measurement": "IC50", "setting": "Protein skinhead-1", "value": "> 100 µM (inactive)"}
    ]},
    {"smiles": "O=C(NCCCCc1ccccc1)C1CC(c2ccccc2[N+](=O)[O-])=NO1", "note": "(configuration not stated)", "values": [
      {"measurement": "IC50", "setting": "[10]", "value": "7.55 µM (not active)"},
      {"measurement": "AC50", "setting": "Cytochrome P450 3A4", "value": "14.1 µM (inconclusive)"},
      {"measurement": "AC50", "setting": "Cytochrome P450 2C9", "value": "31.6 µM (inconclusive)"}
    ]}
  ]
}
